The source of these data is patent US7601856B2 (Wyeth, priority 2006, dated 2009).

The structures appear in SMILES notation. Read-outs that look alike come from different tables or passages of the source.

The test system of data set [1] is isolated rat bladder strips. Briefly: Inhibition of contractions of isolated rat bladder strips. The conditions noted are these: for IC50: 0.5 h; for inhibition at 30 µM: read-out: % Inhibition of Contractility @ 30 μM. Here is the method:
The compounds of the examples were tested to determine their ability to inhibit contractions of isolated rat bladder strips. See Foster, C. […] Malmgren, A. et al. J.Urol.
Male Sprague-Dawley rats (150-200 g) were obtained from ACE animal suppliers. Animals were allowed free access to food and water.
Animals were euthanized by CO2 asphyxiation followed by a bilateral thoracotomy. […] The bladder was opened and then cut into strips 1-2 mm in width and 7-10 mm in length. The strips were subsequently suspended in a 10 ml tissue bath under an initial resting tension of 1.5 g. The strips were held in place by two surgical clips one of which was attached to a fixed hook while the other was attached to an isometric force transducer. […] The carbachol was then washed out and the tissue allowed to relax to its resting level of activity. Following a further 30 minute period of recovery an additional 15 mM KCl were introduced into the tissue bath. […] Following stabilization of this enhanced level of contractile activity, incremental increases in the concentration of test compound or vehicle were introduced into the tissue bath. Contractile activity was measured for each compound or vehicle concentration during the last minute of a 30 minute challenge.
Isometric force developed by the bladder strips was measured using a force transducer and recorded on a polygraph. Contractile activity was assessed by measuring either the average amplitude of the contractions (baseline to peak force) occurring during a one minute period or, preferably, by integrating the contractile activity with respect to time (one minute measuring period).
The percentage inhibition of contractile activity evoked by each concentration of a given test compounds was used to generate a concentration-response curve.

Setting [2] is: concentration eliciting 50% inhibition of pre-drug contractile activity, strips stimulated with additional 15 mM KCl, 30 minute challenge per concentration, read-out: IC50.
Setting [3] is: maximum percentage inhibition of contractile activity, 30 μM, strips stimulated with additional 15 mM KCl.

With `CC(C)(C)C(=O)Nc1ccc2oc3c(c2c1)CCCC3` [Example 1, 2,2-DIMETHYL-N-(6,7,8,9-TETRAHYDRO-DIBENZOFURAN-2-YL)-PROPIONAMIDE], the melting point – broadly, the temperature of the solid-liquid transition – is 210 to 211 °C. For the same compound, the IC50 – broadly, the point on the concentration scale where inhibition reaches its midpoint – in data set [1] (setting [2]) was in the range of 0.2 to 0.7 µM.
For `CC(C)CC(=O)Nc1ccc2oc3c(c2c1)CCCC3` [Example 2, 3-METHYL-N-(6,7,8,9-TETRAHYDRO-DIBENZOFURAN-2-YL)-BUTYRAMIDE] the same measures were 154 to 157 °C and 1.2 to 4 µM.
Regarding `CC(C)(C)CC(=O)Nc1ccc2oc3c(c2c1)CCCC3` [Example 3, 3,3-DIMETHYL-N-(6,7,8,9-TETRAHYDRO-DIBENZOFURAN-2-YL)-BUTYRAMIDE], the melting point is 164 to 165 °C. The IC50 in data set [1] (setting [2]) is 3 to 11 µM.
For `O=C(Cc1ccccc1)Nc1ccc2oc3c(c2c1)CCCC3` [Example 4, 2-PHENYL-N-(6,7,8,9-TETRAHYDRO-DIBENZOFURAN-2-YL)-ACETAMIDE] the same measures were 180 to 181 °C and 9.1 to 12 µM.
With `O=C(Nc1ccc2oc3c(c2c1)CCCC3)C12CC3CC(CC(C3)C1)C2` [Example 5, ADAMANTANE-1-CARBOXYLIC ACID (6,7,8,9-TETRAHYDRO-DIBENZOFURAN-2-YL)-AMIDE], the melting point was in the range of 247 to 248 °C. Further, the inhibition – broadly, the percentage by which the read-out fell short of the control – at 30 µM in data set [1] (setting [3]) lay in the range of 10 to 30%.
`CC(C)(C)c1ccc(C(=O)Nc2ccc3oc4c(c3c2)CCCC4)cc1` [Example 6, 4-TERT-BUTYL-N-(6,7,8,9-TETRAHYDRO-DIBENZOFURAN-2-YL)-BENZAMIDE]: the melting point lay within 185 to 186 °C. Further, in data set [1] (setting [3]), the inhibition at 30 µM lay within 10 to 20%.
In turn, `O=C(CC1CCCCC1)Nc1ccc2oc3c(c2c1)CCCC3` [Example 7, 2-CYCLOHEXYL-N-(6,7,8,9-TETRAHYDRO-DIBENZOFURAN-2-YL)-ACETAMIDE] returned a melting point of 189 to 191 °C. Besides, the IC50 in data set [1] (setting [2]) lay in the range of 10 to 15 µM.
In turn, `CCC(=O)Nc1ccc2oc3c(c2c1)CCCC3` [Example 8, N-(6,7,8,9-TETRAHYDRO-DIBENZOFURAN-2-yl)-PROPIONAMIDE] gave a melting point of 164 to 165 °C. The IC50 in data set [1] (setting [2]) was in the range of 4 to 8 µM.
For `CC(C)C(=O)Nc1ccc2oc3c(c2c1)CCCC3` [Example 9, N-(6,7,8,9-TETRAHYDRO-DIBENZOFURAN-2-YL)-ISOBUTYRAMIDE] the same measures were 206.5 to 208 °C and 6 to 8 µM.
For `CC(=O)Nc1ccc2oc3c(c2c1)CCCC3` [Example 11, N-(6,7,8,9-TETRAHYDRO-DIBENZOFURAN-2-YL)-ACETAMIDE], the melting point is 195.5 to 197.5 °C. For the same compound, the inhibition at 30 µM in data set [1] (setting [3]) is 20 to 30%.
For `Cc1ccccc1C(=O)Nc1ccc2oc3c(c2c1)CCCC3` [Example 12, 2-METHYL-N-(6,7,8,9-TETRAHYDRO-DIBENZOFURAN-2-YL)-BENZAMIDE], the melting point is 209 to 210 °C. In data set [1] (setting [3]), the inhibition at 30 µM fell in the range of 20 to 30%.
Regarding `COc1ccc(C(=O)Nc2ccc3oc4c(c3c2)CCCC4)cc1` [Example 13, 4-METHOXY-N-(6,7,8,9-TETRAHYDRO-DIBENZOFURAN-2-YL)-BENZAMIDE], the melting point was in the range of 197 to 197.5 °C. Further, in data set [1] (setting [3]), the inhibition at 30 µM was in the range of 15 to 25%.
For `CC(C)CCC(=O)Nc1ccc2oc3c(c2c1)CCCC3` [Example 14, 4-METHYL-N-(6,7,8,9-TETRAHYDRO-DIBENZOFURAN-2-YL)-PENTANAMIDE], the melting point is 145.5 to 146 °C. The IC50 in data set [1] (setting [2]) is 10 to 20 µM.
`O=C(Nc1ccc2oc3c(c2c1)CCCC3)c1ccc([N+](=O)[O-])cc1` [Example 15, 4-NITRO-N-(6,7,8,9-TETRAHYDRO-DIBENZOFURAN-2-YL)-BENZAMIDE] showed a melting point of 279 to 280 °C. Also, the inhibition at 30 µM in data set [1] (setting [3]) fell in the range of 10 to 20%.
For `Nc1ccc(C(=O)Nc2ccc3oc4c(c3c2)CCCC4)cc1` [Example 16, 4-AMINO-N-(6,7,8,9-TETRAHYDRO-DIBENZOFURAN-2-YL)-BENZAMIDE] the same measures were 207 to 208 °C and 5 to 10%.
Compound `O=C(Nc1ccc2oc3c(c2c1)CCCC3)c1ccccc1` [Example 18, N-(6,7,8,9-TETRAHYDRO-DIBENZOFURAN-2-YL)-BENZAMIDE] returned a melting point of 178 to 180 °C. In data set [1] (setting [3]), the inhibition at 30 µM was in the range of 40 to 50%.
The compound `CC(C)(C)CC(=O)Nc1ccc2oc3c(c2c1)CCC3` [Example 23, N-(2,3-DIHYDRO-1H-CYCLOPENTA[B]BENZOFURAN-7-YL)-3,3-DIMETHYL-BUTYRAMIDE] registered a melting point of 195.5 to 197 °C. The IC50 in data set [1] (setting [2]) was 0.35 to 0.53 µM.
For `CC(C)(C)C(=O)Nc1ccc2oc3c(c2c1)CCC3` [Example 24, N-(2,3-DIHYDRO-1H-CYCLOPENTA(b)BENZOFURAN-7-YL)-2,2-DIMETHYL-PROPIONAMIDE] the same measures were 188.5 to 190 °C and 1 to 5 µM.
For `CC(C)CC(=O)Nc1ccc2oc3c(c2c1)CCC3` [Example 25, N-(2,3-DIHYDRO-1H-CYCLOPENTA[B]BENZOFURAN-7-YL)-3-METHYL-BUTYRAMIDE] the same measures were 162 to 163 °C and 3 to 8 µM.
For `CC(C)(C)CC(=O)Nc1ccc2oc3c(c2c1)CCCCC3` [Example 26, 3,3-DIMETHYL-N-[7,8,9,10-TETRAHYDRO-6H-Benzo[B]-CYCLOHEPTA[d]FURAN-2-YL]BUTYRAMIDE] the same measures were 182 to 183 °C and 0.2 to 0.7 µM.
As for `CC(C)(C)C(=O)Nc1ccc2oc3c(c2c1)CCCCC3` [Example 27, 2,2-DIMETHYL-N-(6,7,8,9-TETRAHYDRO-5H-10-OXA-BENZO[A]AZULEN-3-YL)-PROPIONAMIDE], the melting point lay in the range of 208 to 209 °C. Besides, the IC50 in data set [1] (setting [2]) is 0.1 to 0.4 µM.
For `CC(C)CC(=O)Nc1ccc2oc3c(c2c1)CCCCC3` [Example 28, 3-METHYL-N-[7,8,9,10-TETRAHYDRO-6H-Benzo[B]-Cyclohepta[D]FURAN-2-YL]BUTYRAMIDE] the same measures were 162 to 163 °C and 1 to 5 µM.
For `O=C(CC1CCCCC1)Nc1ccc2oc3c(c2c1)CCCCC3` [Example 29, 2-CYCLOHEXYL-N-[7,8,9,10-TETRAHYDRO-6H-BENZO[B]-CYCLOHEPTA[d]FURAN-2-YL]ACETAMIDE] the same measures were 188 to 189 °C and 1 to 10 µM.
For `CC(C)(C)CC(=O)Nc1ccc2oc3c(c2c1)CCCCCC3` [Example 62, 3,3-DIMETHYL-N-[6,7,8,9,10,11-HEXAHYDRO-BENZO[B]-CYCLOOCTA[D]FURAN-2-YL]BUTYRAMIDE] the same measures were 157 to 158 °C and 1 to 5 µM.
`CC(C)(C)C(=O)Nc1ccc2oc3c(c2c1)CCCCCC3` [Example 63, 2,2-DIMETHYL-N-[6,7,8,9,10,11-HEXAHYDRO-BENZO[B]-CYCLOOCTA[D]-FURAN-2-YL]PROPIONAMIDE] returned a melting point of 189 to 190 °C. The IC50 in data set [1] (setting [2]) was in the range of 0.11 to 0.25 µM.
Take `CC(C)CC(=O)Nc1ccc2oc3c(c2c1)CCCCCC3` [Example 64, 3-METHYL-N-[6,7,8,9,10,11-HEXAHYDRO-BENZO[B]-CYCLOOCTA[D]-FURAN-2-YL]BUTYRAMIDE]: the melting point was in the range of 154 to 155 °C. In data set [1] (setting [2]), the IC50 is 0.1 to 0.5 µM.
With `O=C(CC1CCCCC1)Nc1ccc2oc3c(c2c1)CCCCCC3` [Example 65, 2-CYCLOHEXYL-N-[6,7,8,9,10,11-HEXAHYDRO-BENZO[B]-CYCLOOCTA[D]FURAN-2-YL]ACETAMIDE], the melting point was 180 to 181 °C. Moreover, the half-inhibitory concentration (IC50) in data set [1] (setting [2]) lay in the range of 4 to 10 µM.
As to `CCCCC(=O)Nc1ccc2oc3c(c2c1)CCCCCC3` [Example 81, N-6,7,8,9,10,11-HEXAHYDROBENZO[B]CYCLOOCTA[D]FURAN-2-YLPENTANAMIDE], in data set [1], the inhibition at 30 µM fell in the range of 10 to 30%.
As for `CCCCCCC(=O)Nc1ccc2oc3c(c2c1)CCCCCC3` [Example 82, N-6,7,8,9,10,11-HEXAHYDROBENZO[B]CYCLOOCTA[D]FURAN-2-YLHEPTANAMIDE], the IC50 in data set [1] is 0.6 to 2 µM.
On to `CC(C)(C)NC(=O)Nc1ccc2oc3c(c2c1)CCCC3` [Example 83, 1-TERT-BUTYL-3-(6,7,8,9-TETRAHYDRO-DIBENZOFURAN-2-YL)-UREA], for which the melting point is 310 to 312 °C (dec.). Moreover, the IC50 in data set [1] (setting [2]) lay within 4 to 5 µM.
On to `CCOC(=O)Nc1ccc2oc3c(c2c1)CCCCC3` [Example 85, ETHYL 7,8,9,10-TETRAHYDRO-6H-BENZO[B]CYCLOHEPTA[D]FURAN-2-YLCARBAMATE], for which the inhibition at 30 µM in data set [1] (setting [3]) lay within 40 to 60%.
Consider `O=C(Nc1ccc2oc3c(c2c1)CCCCCC3)N1CCOCC1` [Example 86, N-(6,7,8,9,10,11-HEXAHYDROBENZO[B]CYCLOOCTA[D]FURAN-2-YL)MORPHOLINE-4-CARBOXAMIDE], for which, in data set [1] (setting [2]), the IC50 is 7 to 9 µM.
Consider `CN(C)C(=O)Nc1ccc2oc3c(c2c1)CCCCCC3` [Example 87, N′-(6,7,8,9,10,11-HEXAHYDROBENZO[B]CYCLOOCTA[D]FURAN-2-YL)-N,N-DIMETHYLUREA], for which, in data set [1] (setting [3]), the inhibition at 30 µM lay within 25 to 35%.
Take `CC(C)OC(=O)Nc1ccc2oc3c(c2c1)CCCCCC3` [Example 88, ISOPROPYL 6,7,8,9,10,11-HEXAHYDROBENZO[B]CYCLOOCTA[D]FURAN-2-YLCARBAMATE]: the inhibition at 30 µM in data set [1] (setting [3]) was 20 to 30%.
